Test results: patent US20050095240A1, “NaCT as a target for lifespan expansion and weight reduction” (Medical College of Georgia Research, priority 2002, published 2005)

What was measured:
rat NaCT = molecular target: T1, rat NaCT (Rattus norvegicus, UniProt Q8CJ44); assay: Uptake via rat NaCT expressed in HRPE cells; format: cell-based
T1 sequence (Q8CJ44 1-572): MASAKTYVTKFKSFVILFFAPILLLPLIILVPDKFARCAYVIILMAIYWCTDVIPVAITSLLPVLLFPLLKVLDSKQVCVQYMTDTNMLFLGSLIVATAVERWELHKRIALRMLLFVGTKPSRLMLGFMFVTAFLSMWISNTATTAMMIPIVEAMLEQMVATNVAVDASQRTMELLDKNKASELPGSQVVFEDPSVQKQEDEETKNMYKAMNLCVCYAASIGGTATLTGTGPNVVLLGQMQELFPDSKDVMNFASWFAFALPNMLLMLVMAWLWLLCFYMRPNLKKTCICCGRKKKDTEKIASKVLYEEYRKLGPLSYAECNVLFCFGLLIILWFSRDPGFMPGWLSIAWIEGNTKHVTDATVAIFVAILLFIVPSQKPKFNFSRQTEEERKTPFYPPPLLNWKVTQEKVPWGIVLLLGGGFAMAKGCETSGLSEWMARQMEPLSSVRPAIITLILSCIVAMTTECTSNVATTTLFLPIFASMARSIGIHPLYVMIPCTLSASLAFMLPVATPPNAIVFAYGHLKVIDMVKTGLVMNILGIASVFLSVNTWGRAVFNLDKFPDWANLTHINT

human NaCT = human NaCT (Homo sapiens, UniProt Q86YT5); assay: Uptake via human NaCT expressed in HRPE cells; format: cell-based
Chain of human NaCT (Q86YT5 whole entry): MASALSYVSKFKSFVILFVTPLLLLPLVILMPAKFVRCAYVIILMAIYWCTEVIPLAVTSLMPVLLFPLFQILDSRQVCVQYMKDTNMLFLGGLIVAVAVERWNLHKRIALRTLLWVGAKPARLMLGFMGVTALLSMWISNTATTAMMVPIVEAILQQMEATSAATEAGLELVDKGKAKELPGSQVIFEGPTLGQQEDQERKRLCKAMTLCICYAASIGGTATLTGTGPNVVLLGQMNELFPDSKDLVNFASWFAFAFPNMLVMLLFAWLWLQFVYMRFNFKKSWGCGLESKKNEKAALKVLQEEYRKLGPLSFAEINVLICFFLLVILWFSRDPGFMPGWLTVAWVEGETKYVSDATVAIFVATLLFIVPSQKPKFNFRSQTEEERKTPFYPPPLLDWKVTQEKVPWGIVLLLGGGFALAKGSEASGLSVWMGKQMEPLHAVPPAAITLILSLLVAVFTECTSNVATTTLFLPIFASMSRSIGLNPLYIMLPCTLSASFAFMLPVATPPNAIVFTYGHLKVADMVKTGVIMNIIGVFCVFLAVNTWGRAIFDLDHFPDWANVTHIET

mouse NaCT = molecular target: T2, mouse NaCT (Mus musculus, UniProt Q67BT3); assay: Transport via mouse NaCT expressed in HRPE cells; format: cell-based; details: Li+ 2 mM, valproate 0.6 μM, carbamazepine 50 μM
T2 sequence (Q67BT3 1-572): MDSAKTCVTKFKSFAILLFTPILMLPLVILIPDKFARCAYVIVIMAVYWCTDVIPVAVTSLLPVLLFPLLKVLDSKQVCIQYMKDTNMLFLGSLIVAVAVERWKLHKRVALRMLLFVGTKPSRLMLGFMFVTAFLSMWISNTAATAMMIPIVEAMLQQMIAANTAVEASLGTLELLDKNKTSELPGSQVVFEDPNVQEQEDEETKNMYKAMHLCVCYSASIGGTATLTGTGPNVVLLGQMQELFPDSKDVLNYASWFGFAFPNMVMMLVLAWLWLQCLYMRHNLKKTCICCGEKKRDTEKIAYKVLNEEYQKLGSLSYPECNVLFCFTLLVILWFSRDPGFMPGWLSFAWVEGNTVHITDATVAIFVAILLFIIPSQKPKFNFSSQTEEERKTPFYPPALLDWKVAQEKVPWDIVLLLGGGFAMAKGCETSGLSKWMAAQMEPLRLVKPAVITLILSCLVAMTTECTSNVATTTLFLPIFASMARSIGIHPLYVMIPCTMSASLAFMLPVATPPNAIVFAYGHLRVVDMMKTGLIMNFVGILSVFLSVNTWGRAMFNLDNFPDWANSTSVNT

zebrafish NaCT = zebrafish NaCT (Danio rerio, UniProt A0A2R8QQN0, K78Q); assay: Citrate uptake via zebrafish NaCT expressed in HRPE cells; format: cell-based
Chain of zebrafish NaCT (A0A2R8QQN0 2-582 K78Q): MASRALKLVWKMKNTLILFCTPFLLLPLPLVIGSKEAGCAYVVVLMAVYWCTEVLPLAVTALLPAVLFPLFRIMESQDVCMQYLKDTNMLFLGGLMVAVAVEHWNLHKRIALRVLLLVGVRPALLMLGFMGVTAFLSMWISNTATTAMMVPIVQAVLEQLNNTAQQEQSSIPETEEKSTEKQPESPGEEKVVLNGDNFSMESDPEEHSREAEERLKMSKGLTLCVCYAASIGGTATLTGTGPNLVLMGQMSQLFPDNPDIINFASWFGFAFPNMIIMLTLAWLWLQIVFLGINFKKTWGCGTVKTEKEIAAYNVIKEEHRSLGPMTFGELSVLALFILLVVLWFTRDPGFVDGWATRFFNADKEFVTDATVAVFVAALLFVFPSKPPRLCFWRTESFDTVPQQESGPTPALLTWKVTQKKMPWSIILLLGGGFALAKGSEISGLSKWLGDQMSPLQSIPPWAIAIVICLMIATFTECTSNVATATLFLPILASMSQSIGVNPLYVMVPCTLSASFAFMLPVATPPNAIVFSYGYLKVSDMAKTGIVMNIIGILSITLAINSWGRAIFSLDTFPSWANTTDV

NaCT in HepG2 cells = molecular target: T3, NaCT in HepG2 cells (Homo sapiens, UniProt Q86YT5); assay: Citrate uptake in HepG2 cells (constitutively expressed NaCT); format: cell-based; details: Li+ 2 mM, valproate 0.6 μM, carbamazepine 50 μM
T3 construct: the effect of Li^+ on constitutively expressed NaCT in human liver cells was studied; host or cells: HepG2
T3 sequence (Q86YT5 whole entry): as the sequence (Q86YT5 whole entry) above
Protocol: (§1) Uptake measurement in human liver cell lines. The human liver cell lines (HepG2 and Huh-7) were cultured to confluency in 24-well culture plates using appropriate culture medium. The HepG2 cell line was obtained from American Type Culture Collection (Manasses, Va.). The Huh-7 cell line (Bode et al., (2002) Am. J. Physiol. 283, G1062-G1073) was provided by Dr. Barrie P. Bode (St. Louis University, St. Louis, Mo.). Uptake measurements in monolayer cultures of these cells were measured as described above for the heterologously expressed NaCTs.

NaCT in Huh-7 cells = molecular target: T4, NaCT in Huh-7 cells (Homo sapiens, UniProt Q86YT5); assay: Citrate uptake in Huh-7 cells (constitutively expressed NaCT); format: cell-based; details: Li+ 2 mM
T4 construct: the effect of Li^+ on constitutively expressed NaCT in human liver cells was studied; endogenous in cells; host or cells: Huh-7 (gift of Dr. Barrie P. Bode)
T4 sequence (Q86YT5 whole entry): as above
Protocol: as §1

HepG2 cells = assay: Incorporation of citrate and acetate into cellular lipids; format: cell-based, human; details: 24 hours
Excerpt: The cellular lipids were then extracted by n-hexane/isopropanol (3:2, v/v) as described by Schamagl et al. (Scharnagl et al., (2001) Biochem. Pharmacol. 62, 1545-1555).

[1] = molecular target: Phe→Leu mutant of human NaCT (Homo sapiens, UniProt Q86YT5, F500L); assay: Citrate uptake via Phe→Leu mutant of human NaCT in HRPE cells; format: cell-based; details: citrate 20 μM; increasing Li+
Chain of Phe→Leu mutant of human NaCT (Q86YT5 whole entry F500L): as the sequence (Q86YT5 whole entry) above, with F500L counted along it

[2] = molecular target: chimeric transporter (human NaCT 496-516 replaced with rat NaCT 500-520) (Homo sapiens, UniProt Q86YT5, F500L/T516A); assay: Citrate uptake via human/rat chimeric NaCT in HRPE cells; format: cell-based; details: Li+ 10 mM; citrate 20 μM
Chain of chimeric transporter (human NaCT 496-516 replaced with rat NaCT 500-520) (Q86YT5 whole entry F500L/T516A): as the sequence (Q86YT5 whole entry) above, with F500L, T516A counted along it

[3] = patients under treatment; cited from earlier work
ceNaCT = molecular target: T5, ceNaCT (Caenorhabditis elegans, UniProt P32739, I91S/L182M); assay: Uptake via ceNaCT expressed in HRPE cells; details: Li+ 2 mM, valproate 0.6 μM, carbamazepine 50 μM
T5 sequence (P32739 1-551 I91S/L182M): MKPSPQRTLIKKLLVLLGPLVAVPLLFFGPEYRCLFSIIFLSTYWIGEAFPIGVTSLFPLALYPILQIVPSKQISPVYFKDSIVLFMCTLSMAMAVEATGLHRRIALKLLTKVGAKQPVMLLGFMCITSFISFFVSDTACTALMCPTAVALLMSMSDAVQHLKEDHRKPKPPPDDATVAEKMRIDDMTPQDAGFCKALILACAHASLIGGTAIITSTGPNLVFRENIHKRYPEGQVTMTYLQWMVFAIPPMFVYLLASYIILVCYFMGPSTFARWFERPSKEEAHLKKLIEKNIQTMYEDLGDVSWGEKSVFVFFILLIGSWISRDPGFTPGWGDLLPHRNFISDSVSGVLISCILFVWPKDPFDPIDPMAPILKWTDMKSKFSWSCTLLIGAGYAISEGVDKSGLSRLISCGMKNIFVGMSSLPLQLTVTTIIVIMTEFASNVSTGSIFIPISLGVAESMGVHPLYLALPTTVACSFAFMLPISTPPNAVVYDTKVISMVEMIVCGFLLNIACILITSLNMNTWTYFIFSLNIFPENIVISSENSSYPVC

[4] = Li+ 2 mM, valproate 0.6 μM, carbamazepine 50 μM

Structure (SMILES): [Li+] [Li^+, lithium]
- Citrate uptake, rNaCT (rat NaCT; [4]): 92.3 ± 8.4 pmol/10^6 cells/min
- Citrate uptake, rNaCT, percent of corresponding control (rat NaCT; [4]): 62%
- IC50 (rat NaCT; read-out: IC50 for inhibition of citrate uptake via rat NaCT, citrate 20 μM): 2.1 ± 0.8 mM
- Increase of affinity for citrate (human NaCT; 10 mM Li+): approximately 7 fold
- Stimulation of human NaCT by Li+ (human NaCT; 10 mM Li+, 60 mM Na+): 7 fold
- Stimulation of human NaCT by Li+ (human NaCT; 10 mM Li+, 140 mM Na+): 3 fold
- Citrate uptake, hNaCT (human NaCT; [4]): 105.2 ± 11.6 pmol/10^6 cells/min
- Citrate uptake, hNaCT, percent of corresponding control (human NaCT; [4]): 203%
- Stimulation of human NaCT activity (human NaCT; Li+ 2.5 mM): 2.4 fold
- EC50 (human NaCT; read-out: Concentration of Li+ needed for half-maximal stimulation of citrate uptake, citrate 20 μM): 2.1 ± 0.7 mM
- Citrate uptake, mNaCT (mouse NaCT): 29.4 ± 1.7 pmol/10^6 cells/min
- Citrate uptake, mNaCT, percent of corresponding control (mouse NaCT): 69%
- Citrate uptake, zfNaCT (zebrafish NaCT): 298.0 ± 12.6 (61) pmol/10^6 cells/min
- Citrate uptake, zfNaCT, percent of corresponding control (zebrafish NaCT): 298.0 ± 12.6 (61) percent
- Citrate uptake, HepG2 cells (NaCT in HepG2 cells): 21.2 ± 0.6 pmol/min/mg protein
- Citrate uptake, HepG2 cells, percent of corresponding control (NaCT in HepG2 cells): 222%
- Citrate uptake, Huh-7 cells (NaCT in Huh-7 cells): 20.0 ± 0.5 pmol/min/mg protein
- Citrate uptake, Huh-7 cells, percent of corresponding control (NaCT in Huh-7 cells): 196%
- Stimulation of incorporation of [^14C]citrate into lipid fraction (HepG2 cells; Li+ 2 mM): 2.6±0.1 fold
- Effect on incorporation of [^14C]acetate into lipids (HepG2 cells; Li+ 2 or 10 mM): did not have any effect
- Effect of Li+ on transport function of the mutant [1]: not affected
- Effect of Li+ on activity of the chimeric transporter [2]: not affected
- Plasma concentrations / therapeutic plasma levels in humans [3]: 800 to 2000 µM
- Citrate uptake, ceNaCT (ceNaCT): 43.6 ± 0.8 pmol/10^6 cells/min
- Citrate uptake, ceNaCT, percent of corresponding control (ceNaCT): 100%
